Experimental data: US6352958B1, “Cycloimido-substituted benzofused heterocyclic herbicides” (FMC Corporation, priority 1997, dated 2002)

Columns and labels:
Type in all cases: in vivo
[1] = system: soybean (Glycine max var. Winchester); assay: Postemergence herbicidal activity, soybean; conditions: rate of application 0.3 Kg/Ha, rated after 12-17 days
[2] = system: velvetleaf (Abutilon theophrasti); assay: Postemergence herbicidal activity, velvetleaf; conditions: rate of application 0.3 Kg/Ha, rated after 12-17 days
[3] = system: Johnsongrass (Sorghum halepense); assay: Preemergence herbicidal activity, johnsongrass; conditions: Rate of Application 0.3 Kg/Ha, examined after 12-17 days
[4] = system: common cocklebur (Xanthium strumarium L.); assay: Postemergence herbicidal activity, cocklebur; conditions: rate of application 0.3 Kg/Ha, rated after 12-17 days
[5] = system: wheat (Triticum aestivum var. Lew); assay: Preemergence herbicidal activity, wheat; conditions: Rate of Application 0.3 Kg/Ha, examined after 12-17 days
[6] = system: Johnsongrass (Sorghum halepense); assay: Postemergence herbicidal activity, johnsongrass; conditions: rate of application 0.3 Kg/Ha, rated after 12-17 days
[7] = system: blackgrass (Aloepecurus myosuroides); assay: Preemergence herbicidal activity, blackgrass; conditions: Rate of Application 0.3 Kg/Ha, examined after 12-17 days
[8] = system: field corn (Zea mays var. Pioneer 3732); assay: Postemergence herbicidal activity, corn; conditions: rate of application 0.3 Kg/Ha, rated after 12-17 days
[9] = system: field corn (Zea mays var. Pioneer 3732); assay: Preemergence herbicidal activity, corn; conditions: Rate of Application 0.3 Kg/Ha, examined after 12-17 days
[10] = system: common cocklebur (Xanthium strumarium L.); assay: Preemergence herbicidal activity, cocklebur; conditions: Rate of Application 0.3 Kg/Ha, examined after 12-17 days
[11] = system: soybean (Glycine max var. Winchester); assay: Preemergence herbicidal activity, soybean; conditions: Rate of Application 0.3 Kg/Ha, examined after 12-17 days
[12] = system: wheat (Triticum aestivum var. Lew); assay: Postemergence herbicidal activity, wheat; conditions: rate of application 0.3 Kg/Ha, rated after 12-17 days
[13] = system: morningglory (Ipomea lacunosa or Ipomea hederacea); assay: Preemergence herbicidal activity, morningglory; conditions: Rate of Application 0.3 Kg/Ha, examined after 12-17 days
[14] = system: morningglory (Ipomea lacunosa or Ipomea hederacea); assay: Postemergence herbicidal activity, morningglory; conditions: rate of application 0.3 Kg/Ha, rated after 12-17 days
[15] = system: green foxtail (Setaria viridis); assay: Preemergence herbicidal activity, green foxtail; conditions: Rate of Application 0.3 Kg/Ha, examined after 12-17 days
[16] = system: green foxtail (Setaria viridis); assay: Postemergence herbicidal activity, green foxtail; conditions: rate of application 0.3 Kg/Ha, rated after 12-17 days
[17] = system: blackgrass (Aloepecurus myosuroides); assay: Postemergence herbicidal activity, blackgrass; conditions: rate of application 0.3 Kg/Ha, rated after 12-17 days
[18] = system: common chickweed (Stellaria media); assay: Preemergence herbicidal activity, chickweed; conditions: Rate of Application 0.3 Kg/Ha, examined after 12-17 days
[19] = system: common chickweed (Stellaria media); assay: Postemergence herbicidal activity, chickweed; conditions: rate of application 0.3 Kg/Ha, rated after 12-17 days
[20] = system: velvetleaf (Abutilon theophrasti); assay: Preemergence herbicidal activity, velvetleaf; conditions: Rate of Application 0.3 Kg/Ha, examined after 12-17 days

SMILES	Postemergence herbicidal activity (% control) SOY [1] [%]	Postemergence herbicidal activity (% control) ABUTH [2] [%]	PREEMERGENCE HERBICIDAL ACTIVITY (% CONTROL) SORHA [3] [%]	Postemergence herbicidal activity (% control) XANPE [4] [%]	PREEMERGENCE HERBICIDAL ACTIVITY (% CONTROL) WHT [5] [%]	Postemergence herbicidal activity (% control) SORHA [6] [%]	PREEMERGENCE HERBICIDAL ACTIVITY (% CONTROL) ALOMY [7] [%]	Postemergence herbicidal activity (% control) CRN [8] [%]	PREEMERGENCE HERBICIDAL ACTIVITY (% CONTROL) CRN [9] [%]	PREEMERGENCE HERBICIDAL ACTIVITY (% CONTROL) XANPE [10] [%]	PREEMERGENCE HERBICIDAL ACTIVITY (% CONTROL) SOY [11] [%]	Postemergence herbicidal activity (% control) WHT [12] [%]	PREEMERGENCE HERBICIDAL ACTIVITY (% CONTROL) IPOSS [13] [%]	Postemergence herbicidal activity (% control) IPOSS [14] [%]	PREEMERGENCE HERBICIDAL ACTIVITY (% CONTROL) SETVI [15] [%]	Postemergence herbicidal activity (% control) SETVI [16] [%]	Postemergence herbicidal activity (% control) ALOMY [17] [%]	PREEMERGENCE HERBICIDAL ACTIVITY (% CONTROL) STEME [18] [%]	Postemergence herbicidal activity (% control) STEME [19] [%]	PREEMERGENCE HERBICIDAL ACTIVITY (% CONTROL) ABUTH [20] [%]
Cn1c(C(F)(F)F)cc(=O)n(-c2c(F)cc(Cl)c3cc(CCCl)oc23)c1=O [Compound 236]	100	100	100	100	70	100	80	90	95	100	100	75	100	100	100	100	80	100	100	100
Cn1c(C(F)(F)F)cc(=O)n(-c2c(F)cc(Cl)c3cc(C(C)(C)O)oc23)c1=O [Compound 242]	100	100	100	100	100	100	100	100	100	100	100	100	100	100	100	100	100	100	100	100
CCOC(OCC)c1cc2c(Cl)cc(F)c(-n3c(=O)cc(C(F)(F)F)n(C)c3=O)c2o1 [Compound 245]	85	100	80	70	60	70	70	75	80	100	100	40	100	100	100	70	50	90	60	100
